Laboratory results taken from ChEMBL document CHEMBL4837239, “Identification of Thieno[3,2-d]pyrimidine Derivatives as Dual Inhibitors of Focal Adhesion Kinase and FMS-like Tyrosine Kinase 3” (J Med Chem, 2021).

Tested on: MDA-MB-231
Assay: In vivo antitumor activity against human MDA-MB-231 cells xenografted in Balb/c mouse assessed as tumor volume at 70 mg/kg, po once daily measured for 16 days (reference value: 600 mm^3)
Type: functional
Settings: time 16 day

With `CCN1CCN(c2ccc(Nc3ncc4scc(-c5cccc(NS(C)(=O)=O)c5)c4n3)cc2)CC1` the Activity was 300 mm3.
